The results in this text go back to patent publication US4840950A, “4-arylcarbonyl-1-[(4-morpholinyl)-lower-alkyl]-1H-indoles” (Sterling Drug Inc., priority 1987, dated 1989).

Data set [1] can be described thus: rotorod performance test (R.R.), neurotoxicity and CNS impairment, as ratio to Ach. The following applies: mouse, in vivo; ratio of rotorod (R.R.):Ach ED50's; Ach ED50 on oral administration. The text has this: (§1) The test procedures used to determine the analgesic activity of the compounds have been described in detail in the prior art and are as follows: The acetylcholine-induced abdominal constriction test, which is a primary analgesic screening test designed to measure the ability of a test agent to suppress acetylcholine-induced abdominal constriction in mice, described by Collier et al., Brit. J. Pharmacol, Chemotherap. 32, 295 (1968) and the rotorod performance test, which is a test designed to measure neurotoxicity of a test compound, described by Dunham et al., J. Pharm. Sci. 46, 206-209 (1957).
(§2) The 4-arylcarbonyl-1-[(4-morpholinyl)-lower-alkyl]-1H-indoles of the invention were tested in the acetylcholine-induced abdominal constriction test (Ach), which gives a measure of antinociceptive activity, and the rotorod assay (R.R.), which gives a measure of neurotoxicity and CNS impairment. The results, expressed in terms of the ED50 's obtained on oral administration in the acetylcholine test and as the ratio of the rotorod (R.R.):Ach ED50 's, are given in the following table: […]
Background: The rotarod test checks motor coordination on a turning rod.

Data set [2] has as its system acetylcholine-induced abdominal constriction in mice. As to the kind of experiment: acetylcholine-induced abdominal constriction test (Ach), antinociceptive activity. It counts as in vivo. The note with it: for ED50: Mus musculus, oral administration.
From the text: as §1, §2

Broadly, the ED50 is the dose that gives a 50% effect, or the effect in half of the subjects.

Consider `COc1ccc(C(=O)c2cccc3c2ccn3CCN2CCOCC2)cc1.Cl` [Ex. 1A, 4-(4-methoxybenzoyl)-1-[2-(4-morpholinyl)ethyl]-1H-indole hydrochloride], for which the selectivity ratio in data set [1] amounted to 3.1. Besides, the “Ach (percent effect)” value in data set [2] (93%/100(s.c.): at 100 (dose unit not given), s.c.) came out at 93%. The median effective dose (ED50) in data set [2] is 46 mg/kg.

For `COc1ccc(C(=O)c2cccc3c2ccn3CCCN2CCOCC2)cc1.Cl` [Ex. 1B, 4-(4-methoxybenzoyl)-1-[3-(4-morpholinyl)propyl]-1H-indole hydrochloride], in data set [1], the selectivity ratio was 2.8. Also, it took a dose of 63 mg/kg to reach the 50% effect level in data set [2] (ED50).

For `O=C(c1cccc2ccccc12)c1cccc2c1ccn2CCN1CCOCC1` [Ex. 1C, 1-[2-(4-morpholinyl)ethyl]-4-(1-naphthylcarbonyl)-1H-indole p-toluenesulfonate hydrate 3:1], the 50% effective dose (ED50) in data set [2] turned out to be 16 mg/kg.
